Reference: PubChem BioAssay AID179 (DTP/NCI, 2004)
The source made the active and inactive calls.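 How the source made its calls: active means compounds giving half or more protection of infected cells from virus-caused growth loss, again on retest; inactive means the rest.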 Where a SMILES comes first, the peptide text is derived from it. Bridges are numbered along the chain shown (N, C = ends). [ ]: non-standard residue; d: D form. The star is where a group is joined. ξ: configuration not given here. PhAc = O=C(Cc1ccccc1)*; ξP = O=C(O)C1CCCN1

System: CEM cells HIV-1 protection, formazan growth assay
Test: NCI AIDS Antiviral Assay
Details: for IC50: measured here: growth of uninfected CEM cells
In short: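 Category rules: moderately active means at least 50% protection on retest, and confirmed active means 100% protection reproducibly. The underlying data came from a formazan growth assay in HIV-1-infected CEM cells.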

SMILES	outcome	IC50 [µM]	EC50 [µM]
CCN(CC)CCNc1ccc(CO)c2sc3ccccc3c(=O)c12	inactive	2690	–
Cc1ccc(C2CC(=O)CC(c3ccc(C)cc3)C23C(=O)NC(=O)NC3=O)cc1 (stereo not given)	–	64.6	> 100
O=C(Nc1cccc(F)c1)c1c(O)[nH]c(=S)[nH]c1=O	–	> 5.13	> 5.13
COc1nc2c(nnn2C2OCC(O)C(O)C2O)c(=O)n1C (stereo not given)	inactive	–	–
O=C(Cc1nc2ccccc2s1)C(=O)Nc1ccccc1C(F)(F)F	–	> 70.8	> 70.8
CC1(O)C=CC(=O)C=C1	–	3.47	> 2000
COC(=O)c1c(/C(=N/Nc2ccc([N+](=O)[O-])cc2)[N+](=O)[O-])ssc1=N	–	10	> 200
C[Si](C)(C)/C=C\CCNCc1ccccc1	–	> 776	> 776
CSCCC(N)C(=O)NCCS(=O)(=O)O (stereo not given)	–	> 200	> 200
Cc1cc(Cl)ccc1NC(=O)CCCC(=O)C1CCC/C1=N\NC(=O)CC#N (stereo not given)	–	> 64.6	> 64.6
N#Cc1nc(C2CCC2)oc1N	–	> 200	> 200
CS/C(=C(\S)c1ccccc1)c1ccccc1	inactive	–	–
O=C(OCC(Cl)(Cl)Cl)O[C@@H]1CCCC1(c1ccccc1)c1ccccc1	–	49	> 135
O=C1C=C/C(=C/[C@H]2SSC=C[C@]23C=CC(=O)C3)C1	–	2.63	> 200
CCCNc1c(Cl)cc(Cl)c2[nH]c3ccccc3c(=O)c12	–	23.4	> 200
CC(=O)OCCn1c(Cc2ccc(Cl)cc2)nn(C(C)=O)c1=O	–	> 200	> 200
C/C(C=C(C#N)C#N)=C\c1ccc(N(C)C)cc1	–	> 21.9	> 21.9
Cc1cc2c(C(C)C)c(O)c(O)c(C=Nc3ccccc3O)c2c(O)c1-c1c(C)cc2c(C(C)C)c(O)c(O)c(C=Nc3ccccc3O)c2c1O	–	3.24	> 200
Cc1ccc2ccc(-c3cc4ccccc4s3)nc2c1	inactive	–	–
CC(=O)N(C(C)=O)n1c(-c2ccccc2)n[nH]c1=O	–	> 200	> 200
Cc1nc(N)c(N2CCN([N+](=O)[O-])CC2)c(=O)[nH]1	inactive	–	–
COc1ccc2nc(NC(=O)C(=O)C(C#N)c3ccc(Cl)c(Cl)c3)sc2c1 (stereo not given)	inactive	–	–
O=[N+]([O-])c1cc[n+]([O-])cc1	–	8.91	> 1410

SMILES	outcome	IC50 [µM]	EC50 [µM]
N#CC1(C#N)C2=C(CCCC2)NC(c2ccc(Br)cc2)C1(C#N)C#N (stereo not given)	–	0.0813	> 0.2
COC1=CC(=O)c2ccccc2C1(CCC=C(C)C)C1=NC(C)(C)CO1 (stereo not given)	inactive	–	–
CCCCCCCCCCCCCCCCCCOCC(C[N+]1(C)CCC(O)CC1)OCC (stereo not given)	–	> 0.912	> 0.912
Cc1c(C)c(C)c(-n2[nH]c(=O)n(C)c2=O)c(C)c1C	–	> 200	> 200
Nc1nc(Cl)c(N)c(NCC2(CO)CC2)n1	–	> 200	> 200
CCCNC(=O)c1ccccc1C(=O)C(Cl)c1ccccc1 (stereo not given)	–	> 214	> 214
CC1(C)CNC[C@@](C)(O)C(=O)NC(C)(C)CNC[C@@](C)(O)C(=O)N1	–	> 200	> 200
COC(=O)c1cc2c(=O)n(C)c3ccccc3n2c1C(=O)OC	–	32.4	> 56.2
CCCN(CCC)C(=O)COc1cc2c(O)c3c(O)c(C)c4c(c13)C(=O)C(C)(O/C=C/C(OC)C(C)C(OC(C)=O)C(C)C(O)C(C)C(O)C(C)/C=C/C=C(\C)C(=O)N2)O4 (stereo not given)	inactive	–	–
NC1=NN(c2ccccc2)C(=O)C1C(=O)C(=O)Nc1ccc(Cl)c(Cl)c1 (stereo not given)	–	234	> 331
Cn1c(=O)oc(=O)c2ccccc21	inactive	–	–
CN(C)c1cccc2c(S(=O)(=O)NCCCCCCCCCCCCNS(=O)(=O)c3cccc4c(N(C)C)cccc34)cccc12	–	–	> 200
CN(CCO)c1nc(=O)c2c(n1C1OC(CO)C(O)C(O)C1O)CCCC2 (stereo not given)	–	> 339	> 339
O=C(c1ccc(Cl)cc1)N(C(=O)N1CCCCC1)c1ccccc1	–	81.3	> 200
[C-]#[N+][C@@]1(C)CCC2C(C)CC[C@@H](C(=C)C)[C@@]23C=C(C)CC[C@H]31 (stereo not given in full)	–	138	> 200
C=C1CC(C)(COc2ccc3c(C)cc(=O)oc3c2)OC1=O (stereo not given)	–	0.501	> 20
COc1ccc(NC(=O)CCc2cc(-c3ccc(O)c(OC)c3)nc(NC#N)n2)cc1	–	> 224	> 224
C(/C=C/c1ccccc1)=Nc1ccc(CCc2ccc(N=C/C=C/c3ccccc3)cc2)cc1	–	> 1.23	> 1.23
O=c1oc(C(C(F)(F)F)C(F)(F)F)nc2ccccc12	–	> 200	> 200
c1cc2nnc1SCCSCCCSCCS2	–	182	> 200
CC1OC([C@]2(C)O[C@@H]([C@@]3(C)OC=CC3=O)CC2=O)CC1=O (stereo not given in full)	inactive	–	–
CN(C)c1ccc(/C=C2\CCOC2=O)cc1	–	> 17.4	> 17.4
Cn1c(COc2ccc(/C=N/NC(=O)CCC(=O)N/N=C/c3ccc(OCc4c[n+]5ccccc5n4C)cc3)cc2)c[n+]2ccccc12	–	19.1	13.5

SMILES	outcome	IC50 [µM]	EC50 [µM]
Oc1ccc2ccccc2c1NCn1nc(CCCCCCCCc2nn(CNc3c(O)ccc4ccccc34)c(=S)o2)oc1=S	–	37.2	> 200
Cc1nc2c(cnn2C)cc1CCc1ccccc1	–	33.9	> 200
COc1ccc(C(=O)O/N=C2/CCCCC2CN(C)C)cc1 (stereo not given)	inactive	–	–
O=C1CC2(CCC(O)(c3ccc4ccccc4c3)C(C(=O)c3ccc4ccccc4c3)C2)C(=O)c2ccccc2N1 (stereo not given)	–	83.2	> 200
S=C(Nc1ccccn1)Nc1ccccn1	–	195	> 200
CCOC(=O)c1ccc(-c2cc(C)no2)[nH]1	–	36.3	> 200
C=CCC(CCC(CC=C)C(=O)O)C(=O)O (stereo not given)	–	> 1100	> 1100
O=C1OC(CCCl)(c2ccccc2)CC1CN1CCOCC1 (stereo not given)	–	10.5	> 692
CC1(C)OCN(c2ccc(N3CCOCC3)cc2)Cn2c1nc1ccccc12	–	64.6	> 200
CN(C)CCC=C1c2ccccc2C(C)(C)c2ccccc21	–	25.1	> 141
O=[N+]([O-])c1ccc(C2=Nn3cnnc3SC2)o1	inactive	–	–
Cc1ccc(S(=O)(=O)n2c3ccc(Br)cc3c3nc4ccccc4nc32)cc1	–	> 100	> 100
CC(=O)C1(O)C(=[N+]=[N-])C(=O)Nc2ccccc21 (stereo not given)	–	66.1	> 200
CNCCCNCCCSP(=O)(O)O	–	191	> 195
Cc1ccc(Nc2ncnc3sc(SCc4ccccc4)nc23)cc1	inactive	–	–
Fc1ccc(F)c(C=NC23CC4CC(CC(C4)C2)C3)c1	–	> 200	> 200
CC(C)C1/C(=N/O)CC(c2ccccc2)N(N=O)C1c1ccccc1 (stereo not given)	–	66.1	> 200
CCOP(=O)(CP(=O)(OCC)OCC)OCC.[Cl][Sn]([Cl])([c]1ccccc1)[c]1ccccc1	–	0.603	> 11.5
COc1ccc(N)c(CC2c3ccccc3CCN2C)c1 (stereo not given)	inactive	–	–
O=C(O)c1ccccc1/C=N\NC1=NCCN1	–	115	69.2
O=C1NS(=O)(=O)c2cc(Cl)ccc21	–	> 1150	> 1150
Nc1ccc(SCc2ccc(C(=O)O)cc2)cc1	–	> 28.2	> 28.2
O=[N+]([O-])c1ccc(-n2nnc(C3=NCCCN3)c2-c2ccc(Cl)cc2)cc1	–	148	1.38

SMILES	outcome	IC50 [µM]	EC50 [µM]
O=c1oc2cc(O)ccc2c(O)c1C(c1ccccc1)c1c(O)c2ccc(O)cc2oc1=O	–	178	> 200
CCOc1ccc(NC(=O)/C(CC(=O)c2sc(Nc3ccc(C)cc3)nc2C)=N\NC(N)=S)cc1	–	> 200	> 200
COC(=O)c1coc(CC/C(C)=C/c2ccccc2)n1	–	126	> 200
O=C(Cc1ccccc1)N[C@@H]1COC(=O)C2CCCN2C(=O)[C@@H]2CCCN2C1=O (stereo not given in full) (PhAc-[dS]-Pro-[ξP]; ester 1-C)	–	> 200	> 200
Cc1cn(C(C)OCCN2C(=O)c3ccccc3C2=O)c(=O)[nH]c1=O (stereo not given)	–	> 200	> 200
Cc1cc(C)c2c(c1N)C(=O)CCO2	inactive	–	–
COC(=O)c1cc(C(=CCC2OCCO2)c2cc(Cl)c(OC)c(C(=O)OC)c2)cc(Cl)c1OC	–	38.9	> 52.5
CC1=C(C/C=C/c2ccccc2)C(=O)c2ccccc2C1=O	inactive	–	–
CN(C)c1ccc(/C=C/c2sc3ccccc3[n+]2C)cc1	–	0.575	> 47.9
N[C@H]1CCc2c1nc1c(c2-c2ccccc2)CC[C@@H]1N	–	83.2	> 200
O=C(O)C1(Cl)C2(Cl)C(Cl)=CC3(Cl)C(Cl)(C(=O)O)C2(Cl)C31Cl (stereo not given)	–	> 200	> 200
COc1ccc(/C=C2/NC(=S)N=C2Cl)cc1	–	> 200	> 200
Cn1c(NC(=O)NC23CC4CC(CC(C4)C2)C3)nc2ccccc21	–	> 200	> 200
C[C@]12CC[C@H](O)CC1=CC[C@@H]1C2CC[C@]2(C)NC(=O)C(C#N)CC12 (stereo not given in full)	inactive	–	–
CC(=O)OCC(c1ccccc1)N1C(=O)C(OC(C)=O)[C@H](OC(C)=O)C1=O (stereo not given in full)	–	> 661	> 661
CN(C)c1ccc(/C=C2\CCc3ccccc3C2=O)cc1Br	–	> 10.7	> 10.7
COC(=O)C(C(=O)C(=O)Nc1ccccc1OC)c1csc(-n2nc(-c3ccccc3)cc2-c2ccccc2)n1 (stereo not given)	–	97.7	> 115
CCCCOC(=O)C(=O)/C(=C/N1C(=O)/C(=C/C(C)=C/c2ccccc2)SC1=S)C(=O)C=C(C)C	–	14.8	> 100
O=C1c2ccccc2C(=O)C1(O)c1c[nH]c2ccccc12	–	64.6	> 912
OC12c3ccccc3C3CCC4(OCCO4)C3C1c1ccccc12 (stereo not given)	–	141	> 200
C#Cc1ccccc1C(=O)OC	–	> 251	> 251
COCC1=C(O)C=C2Oc3c(C(C)=O)c(O)c(C)c(O)c3[C@@]2(C)C1=O	–	12	> 100
